From US11951094B2, “TLR2 modulator compounds, pharmaceutical compositions and uses thereof” (Axial Therapeutics, Inc., priority 2020, dated 2024)

Target: TLR2 (Homo sapiens, UniProt O60603)
Test: TLR2 agonist screening assay, HEK-Blue TLR2 reporter cell line (NF-kB-driven SEAP, absorbance at 600 nm)
Assay type: cell-based
Set-up: host or cells: HEK-293 (HEK-Blue TLR2 reporter cell line)
Settings: HEK-Blue TLR2 reporter cells, agonist mode; average of all runs (Table 3)
From the text: TLRs are a class of cell-surface receptors expressed on many different cell types that recognize conserved structural motifs present on pathogen-derived molecules. TLR2 recognizes bacteria-derived lipopeptides. […] Provided herein is an assay to identify and characterize the binding affinities of novel TLR2 agonists.
The in vitro TLR2 assay consists of a cell line that responds to TLR2 engagement by producing a factor that elicits a color change in the culture media and can be readily measured by various colorimetric detection methods. This assay enables the identification of existing and novel compounds that engage TLR2 and, by virtue of compound dilution, to approximate the binding affinity of these compounds for eliciting a TLR2 signal.
The TLR2 screening assay was developed from the HEK-Blue TLR2 reporter cell line that is commercially available from Invivogen (San Diego, CA). The reporter cell line consists of HEK-293 embryonic kidney cells that have been engineered to express TLR2 and with an NF-kB promoter driving expression of Secreted Alkaline Phosphatase (SEAP). Upon engagement of TLR2, downstream signaling results in activation of NF-kB pathway activation and secretion of SEAR In the presence of the detection reagent in the tissue culture media, SEAP mediates a color change from clear to indigo that is readily assessed by measuring absorbance at 600 nm.
HEK-Blue TLR2 reporter cells are cultured according to manufacturer's specifications until a confluence of 70-90%, at which point the cells are trypsinized, counted, and plated into 96-well plates at approximately 40,000 cells per well. Cells are cultured overnight and the TLR2 assay is performed 16-24 hours post-plating into 96 well plates.
Compounds are diluted from stocks dissolved in DMSO and a 1% DMSO final concentration is maintained in all testing wells.
The assay consists of removing the cell culture media after cells have been cultured overnight and replacing the media with HEK-Blue Detection media with TLR2 agonists at indicated dilution schemes. The Detection media contains a chemical substrate that turns from clear to indigo when acted upon by SEAP. The HEK-Blue cells are then cultured overnight in Detection media with diluted compounds. After overnight culture with agonists, each well of the plate is assayed in a plate reader at 600 nanometer absorbance.
• (1) HEK-Blue TLR2 cells are diluted in complete DME culture medium and plated into 96-well plates at 40,000 cells per well and cultured overnight. • (2) After 16-24 hours in culture, the media is removed and replaced with 200 microliters per well of HEK-Blue Detection media. • (3) TLR2 agonists are diluted 100-fold from DMSO stocks into each well, yielding a final DMSO concentration of 1% in all wells. • (3) Treated cells are cultured overnight and the following day are assayed in plate reader for Absorbance at 600 nanometer.
Following assay measurements utilizing either HEK-Blue detection or cytokine release, all data is analyzed with the GraphPad Prism8 statistical package to determine EC50, binding and activity metrics for the TLR2 modulators.
Data is generated using protocol described in Example 44.

Sequence of TLR2 (O60603 21-784): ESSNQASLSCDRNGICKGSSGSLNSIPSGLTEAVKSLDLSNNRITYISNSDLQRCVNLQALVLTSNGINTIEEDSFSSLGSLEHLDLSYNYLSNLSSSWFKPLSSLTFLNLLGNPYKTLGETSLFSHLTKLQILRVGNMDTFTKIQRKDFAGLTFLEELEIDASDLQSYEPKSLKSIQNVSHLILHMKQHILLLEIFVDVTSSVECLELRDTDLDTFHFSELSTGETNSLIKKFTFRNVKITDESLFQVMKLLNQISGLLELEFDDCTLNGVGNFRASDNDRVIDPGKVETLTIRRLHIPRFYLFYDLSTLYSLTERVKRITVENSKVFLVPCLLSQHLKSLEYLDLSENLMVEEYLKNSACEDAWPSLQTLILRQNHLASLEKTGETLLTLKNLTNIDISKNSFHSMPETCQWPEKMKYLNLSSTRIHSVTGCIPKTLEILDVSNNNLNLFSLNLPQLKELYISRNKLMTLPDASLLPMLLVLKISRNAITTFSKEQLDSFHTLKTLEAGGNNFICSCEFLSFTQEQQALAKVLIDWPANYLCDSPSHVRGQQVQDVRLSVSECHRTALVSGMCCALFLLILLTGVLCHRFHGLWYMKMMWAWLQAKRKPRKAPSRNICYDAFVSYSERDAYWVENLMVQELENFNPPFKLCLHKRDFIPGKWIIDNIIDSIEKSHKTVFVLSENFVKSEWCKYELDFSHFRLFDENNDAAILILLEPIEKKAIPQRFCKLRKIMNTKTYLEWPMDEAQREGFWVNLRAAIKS

First: CCCCCCCC(=O)N1CCN(C(=O)c2ccc(C(=O)N3C[C@@H](C(=O)N[C@H]4C[C@@H]4c4ccccc4)[C@H](C(=O)N[C@H]4C[C@@H]4c4ccccc4)C3)cc2)CC1C(=O)NCCCC (mixture of isomers) [Compound 046, (3S,4S)-1-(4-(3-(butylcarbamoyl)-4-octanoylpiperazine-1-carbonyl)benzoyl)-N3,N4-bis((1S,2R)-2-phenylcyclopropyl)pyrrolidine-3,4-dicarboxamide]
Second: CCCCCCNC(=O)C1CN(C(=O)c2ccc(C(=O)N3C[C@@H](C(=O)N[C@H]4C[C@@H]4c4ccccc4)[C@H](C(=O)N[C@H]4C[C@@H]4c4ccccc4)C3)cc2)CCN1C(=O)CCCCCC (mixture of isomers) [Compound 056, (3S,4S)-1-(4-(4-heptanoyl-3-(hexylcarbamoyl)piperazine-1-carbonyl)benzoyl)-N3,N4-bis((1S,2R)-2-phenylcyclopropyl)pyrrolidine-3,4-dicarboxamide]
The EC50 of the first is higher: 51 to 350 nM for the first, 0.1 to 50 nM for the second.

First: O=C(N[C@H]1C[C@@H]1c1ccccc1)[C@@H]1CN(C(=O)c2cccc(C(=O)N3C[C@@H](C(=O)N[C@H]4C[C@@H]4c4ccccc4)[C@H](C(=O)N[C@H]4C[C@@H]4c4ccccc4)C3)c2)C[C@H]1C(=O)N[C@H]1C[C@@H]1c1ccccc1 (racemic) [Compound 001]
Second: CCCCCCNC(=O)[C@@H]1CN(C(=O)c2ccc(C(=O)N3C[C@@H](C(=O)N[C@H]4C[C@@H]4c4ccccc4)[C@H](C(=O)N[C@H]4C[C@@H]4c4ccccc4)C3)cc2)C[C@@H]1O (racemic) [Compound 034, (3S,4S)-1-(4-((3R*,4R*)-3-(hexylcarbamoyl)-4-hydroxypyrrolidine-1-carbonyl)benzoyl)-N3,N4-bis((1S,2R)-2-phenylcyclopropyl)pyrrolidine-3,4-dicarboxamide]
The EC50 of the first is higher: over 1000 nM for the first, 351 to 1000 nM for the second.

First: CCCCCCCCCCCCCCNC(=O)[C@@H]1CN(C(=O)c2ccc(C(=O)N3C[C@@H](C(=O)N[C@H]4C[C@@H]4c4ccccc4)[C@H](C(=O)N[C@H]4C[C@@H]4c4ccccc4)C3)cc2)C[C@H]1O (racemic) [Compound 045, (3S,4S)-1-(4-((3S*,4R*)-3-hydroxy-4-(tetradecylcarbamoyl)pyrrolidine-1-carbonyl)benzoyl)-N3,N4-bis((1S,2R)-2-phenylcyclopropyl)pyrrolidine-3,4-dicarboxamide]
Second: CCCCCCCCCCCCCCNC(=O)[C@@H]1CN(C(=O)c2ccc(C(=O)N3C[C@@H](C(=O)N[C@H]4C[C@@H]4c4ccccc4)[C@H](C(=O)N[C@H]4C[C@@H]4c4ccccc4)C3)cc2)C[C@@H]1OC (single isomer, unassigned) [Compound 061, (3S,4S)-1-(4-((3R*,4R*)-3-methoxy-4-(tetradecylcarbamoyl)pyrrolidine-1-carbonyl)benzoyl)-N3,N4-bis((1S,2R)-2-phenylcyclopropyl)pyrrolidine-3,4-dicarboxamide]
The EC50 of the first is higher: 351 to 1000 nM for the first, 0.1 to 50 nM for the second.

Compared with `CCCCCCNC(=O)[C@@H]1CN(C(=O)c2ccc(C(=O)N3C[C@@H](C(=O)N[C@H]4C[C@@H]4c4ccccc4)[C@H](C(=O)N[C@H]4C[C@@H]4c4ccccc4)C3)cc2)C[C@H]1O` (relative stereo) [Compound 033, (3S,4S)-1-(4-((3R*,4S*)-3-(hexylcarbamoyl)-4-hydroxypyrrolidine-1-carbonyl)benzoyl)-N3,N4-bis((1S,2R)-2-phenylcyclopropyl)pyrrolidine-3,4-dicarboxamide], `CCCCCCCO[C@H]1CN(C(=O)c2ccc(C(=O)N3C[C@@H](C(=O)N[C@H]4C[C@@H]4c4ccccc4)[C@H](C(=O)N[C@H]4C[C@@H]4c4ccccc4)C3)cc2)C[C@H]1C(=O)NCCCCCC` (single isomer, unassigned) [Compound 073, (3S,4S)-1-(4-((3R*,4R*)-3-(heptyloxy)-4-(hexylcarbamoyl)pyrrolidine-1-carbonyl)benzoyl)-N3,N4-bis((1S,2R)-2-phenylcyclopropyl)pyrrolidine-3,4-dicarboxamide] is higher in EC50: 51 to 350 nM for the first, 351 to 1000 nM for the second. The first is the more potent here.

First: CCCCCCNC(=O)[C@@H]1C[C@H](C(=O)NCCCCCC)CN(C(=O)c2ccc(C(=O)N3C[C@@H](C(=O)N[C@H]4C[C@@H]4c4ccccc4)[C@H](C(=O)N[C@H]4C[C@@H]4c4ccccc4)C3)cc2)C1 (relative stereo) [Compound 038, (3R*,5S*)-1-(4-((3S,4S)-3,4-bis(((1S,2R)-2-phenylcyclopropyl)carbamoyl)pyrrolidine-1-carbonyl)benzoyl)-N3,N5-dihexylpiperidine-3,5-dicarboxamide]
Second: CCCCCCCNC(=O)[C@@H]1CN(C(=O)c2ccc(C(=O)N3C[C@@H](C(=O)N[C@H]4C[C@@H]4c4ccccc4)[C@H](C(=O)N[C@H]4C[C@@H]4c4ccccc4)C3)cc2)C[C@H]1OCCCCCCC (relative stereo) [Compound 062, (3S,4S)-1-(4-((3R*,4S*)-3-(heptylcarbamoyl)-4-(heptyloxy)pyrrolidine-1-carbonyl)benzoyl)-N3,N4-bis((1S,2R)-2-phenylcyclopropyl)pyrrolidine-3,4-dicarboxamide]
The EC50 of the first is higher: 351 to 1000 nM for the first, 51 to 350 nM for the second. The second is the more potent here.

Same assay, conditions: HEK-Blue TLR2 reporter cells, agonist mode; average of all runs (Table 4)

Compared with `CCCCCCCC[C@@H]1CN(C(=O)c2ccc(C(=O)N3C[C@@H](C(=O)N[C@H]4C[C@@H]4c4ccccc4)[C@H](C(=O)N[C@H]4C[C@@H]4c4ccccc4)C3)cc2)C[C@H]1C(=O)NCCCCCC` (racemic) [Compound 085, (3S,4S)-1-(4-((3S*,4S*)-3-(hexylcarbamoyl)-4-octylpyrrolidine-1-carbonyl)benzoyl)-N3,N4-bis((1S,2R)-2-phenylcyclopropyl)pyrrolidine-3,4-dicarboxamide], `CCCCCCCC[C@H]1CN(C(=O)c2ccc(C(=O)N3C[C@@H](C(=O)N[C@H]4C[C@@H]4c4ccccc4)[C@H](C(=O)N[C@H]4C[C@@H]4c4ccccc4)C3)cc2)C[C@H]1C(=O)NCCCCCC` (relative stereo) [Compound 086, (3S,4S)-1-(4-((3S*,4R*)-3-(hexylcarbamoyl)-4-octylpyrrolidine-1-carbonyl)benzoyl)-N3,N4-bis((1S,2R)-2-phenylcyclopropyl)pyrrolidine-3,4-dicarboxamide] is higher in EC50: 0.1 to 50 nM for the first, over 1000 nM for the second. The first is the more potent here.

First: O=C(N[C@H]1C[C@@H]1c1ccccc1)[C@@H]1CN(C(=O)c2ccc(C(=O)N3C[C@@H](C(=O)N[C@H]4C[C@@H]4c4ccccc4)[C@H](C(=O)N[C@H]4C[C@@H]4c4cccnc4)C3)cc2)C[C@H]1C(=O)N[C@H]1C[C@@H]1c1ccccc1 (relative stereo) [Compound 096, (3S,4S)—N3-((1S)-2-phenylcyclopropyl)-N4-(2-phenylcyclopropyl)-1-(4-((3S,4S)-3-(((1S,2R)-2-phenylcyclopropyl)carbamoyl)-4-(((1S*,2R*)-2-(pyridin-3-yl)cyclopropyl)carbamoyl)pyrrolidine-1-carbonyl)benzoyl)pyrrolidine-3,4-dicarboxamide]
Second: O=C(N[C@H]1C[C@@H]1c1ccccc1)[C@@H]1CN(C(=O)c2ccc(C(=O)N3C[C@@H](C(=O)N[C@H]4C[C@@H]4c4cccnc4)[C@H](C(=O)N[C@H]4C[C@@H]4c4cccnc4)C3)cc2)C[C@H]1C(=O)N[C@H]1C[C@@H]1c1ccccc1 (single isomer, unassigned) [Compound 094, (3S,4S)-1-(4-((3S,4S)-3,4-bis(((1S*,2R*)-2-(pyridin-3-yl)cyclopropyl)carbamoyl)pyrrolidine-1-carbonyl)benzoyl)-N3,N4-bis((1S,2R)-2-phenylcyclopropyl) pyrrolidine-3,4-dicarboxamide]
The EC50 of the first is lower: 0.1 to 50 nM for the first, 51 to 350 nM for the second. The first is the more potent here.

First: CCCCCCCO[C@H]1CN(C(=O)c2ccc(C(=O)N3C[C@@H](C(=O)N[C@H]4C[C@@H]4c4ccccc4)[C@H](C(=O)N[C@H]4C[C@@H]4c4ccccc4)C3)cc2)C[C@@H]1C(=O)NCCCCCC (relative stereo) [Compound 113, (3S,4S)-1-(4-((3R*,4S*)-3-(heptyloxy)-4-(hexylcarbamoyl)pyrrolidine-1-carbonyl)benzoyl)-N3,N4-bis((1S,2R)-2-phenylcyclopropyl)pyrrolidine-3,4-dicarboxamide]
Second: CCCCCCCO[C@@H]1CN(C(=O)c2ccc(C(=O)N3C[C@@H](C(=O)N[C@H]4C[C@@H]4c4ccccc4)[C@H](C(=O)N[C@H]4C[C@@H]4c4ccccc4)C3)cc2)C[C@@H]1C(=O)NCCCCCC (relative stereo) [Compound 116, (3S,4S)-1-(4-((3S*,4S*)-3-(heptyloxy)-4-(hexylcarbamoyl)pyrrolidine-1-carbonyl)benzoyl)-N3,N4-bis((1S,2R)-2-phenylcyclopropyl)pyrrolidine-3,4-dicarboxamide]
The EC50 of the first is lower: 51 to 350 nM for the first, 351 to 1000 nM for the second.
